Assay results taken from US20150087527A1, “METHOD AND KIT FOR THE CLASSIFICATION AND PROGNOSIS OF TISSUE OR ORGAN FIBROSIS IN A REPARATIVE OR REACTIVE PROCESS” (VIVATECH, priority 2012, published 2015).

How the values were obtained:
αSMA expression in NHDF = test: Ex vivo model for fibrosis or hypertrophic scar: αSMA expression by RT-qPCR and Western Blot; format: cell-based, human; conditions: fibroblasts cultivated with TGF-β (10 ng/mL TGF-β1); FIGS. 1 and 2
Experimental: To study the myofibroblasts involved in generating hypertrophic or keloid scars, NHDF were cultivated on collagen coated culture plates in DMEM-F12 (Invitrogen), supplemented with 10% FCS (Invitrogen), 5 μg/mL of insulin and 1 ng/mL of b-FGF (PromoKine) and 10 ng/mL of TGF-β1 (Promocell), as TGF-β1 is known to induce the expression of αSMA in fibroblasts (Desmouliere A, Geinoz A, Gabbiani F, Gabbiani G (1993) Transforming growth factor-beta 1 induces alpha-smooth muscle actin expression in granulation tissue myofibroblasts and in quiescent and growing cultured fibroblasts. J Cell Biol, 1993 July, 122(1): 103-111). […]
This αSMA expression was assessed by RT-qPCR (mRNA levels) and by Western Blot (protein).
Total proteins were extracted by scratching the cells with lysis buffer (TRIS, NaCl, NP40, EDTA, IMDTT) and incubated 30 min in ice. […] Protein concentration was determined according to BCA method (Sigma). […] Signals were detected by ECL chemiluminescence using UptiLight HS WB Substrate (Uptima, Interchim). Bands were digitized with a scanner and the ratio between all bands density of the same blot was calculated by software (ImageJ 1.43u, 64-bit). […]
After four days of experiment, treated fibroblasts were detached with TRIzol Reagent (Invitrogen) and stored at −80° C. […] Total RNA was quantified on the NanoDrop 2000c Spectrophotometer (Thermo Scientific). […]

[1] = tested on: PI16 mRNA in NHDF (Normal Human Dermal Fibroblast); test: Timing of PI16 mRNA expression after TGFbeta treatment (RTqPCR); format: cell-based; conditions: after 1 h of TGFbeta, FIG. 4A and B
Experimental: Quantitative real-time PCR (RT-qPCR) was done using 5 μL of 1:20 diluted cDNA on the LightCycler480 system (Roche) using Maxima SYBR Green qPCR Master Mix (Fermentas). Forward and reverse primers were designed by Eurofins (MWG, αSMA forward: […] (SEQ ID NO:1), αSMA reverse: […] (SEQ ID NO:2)) and a 100 μM stock was stored at −20° C. Forward and reverse primer pairs were used for each RT-qPCR reaction. The cycling conditions were as follows: an initial 95° C. for 10 minutes, followed by 45 cycles of 95° C. for 15 sec, 58° C. for 30 sec, 72° C. for 20 sec. LightCycler 480 SW 1.5 was used to evaluate the TM curves, to determine the Cp and to approximate the relative concentration for each amplification reaction.
NHDF (Normal Human Dermal Fibroblast) were treated with TGFbeta as described previously for different times (between 1 h and 96 h). After treatment mRNA were extracted and levels of PI16 mRNA were assessed by RTqPCR.

In the case of “TGF-β: TGF-β1 (Promocell), known to induce the expression of αSMA in fibroblasts”, the “αSMA expression (mRNA and protein)” value (αSMA expression in NHDF) is reported as “high level” and the “PI16 mRNA up regulation after TGFbeta treatment” value [1] is reported as 3 ×.
